# Laboratory results: US20240254119A1 (THIRD HARMONIC BIO, INC., priority 2022, published 2024)
# Biological target: T1, wtKIT (Homo sapiens, UniProt P10721)
# T1 construct: 1888289AM in the reaction mixtures
# Assay: HTRF biochemical assay, wtKIT (phosphorylation of a peptide substrate)
# Conditions: Table 4
# Procedure, shortened: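 HTRF read-out of FAM-peptide (1 µM) phosphorylation after anti-phosphotyrosine antibody addition and EDTA quench. Reaction: 5.0 nM wtKIT, 400 µM ATP, 10 mM Mn2+, HEPES pH 7.5, 1% DMSO, 3 h, 25 °C; optional enzyme-compound preincubation; enzyme level set for 10-20% conversion.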
# T1 sequence (P10721 26-976): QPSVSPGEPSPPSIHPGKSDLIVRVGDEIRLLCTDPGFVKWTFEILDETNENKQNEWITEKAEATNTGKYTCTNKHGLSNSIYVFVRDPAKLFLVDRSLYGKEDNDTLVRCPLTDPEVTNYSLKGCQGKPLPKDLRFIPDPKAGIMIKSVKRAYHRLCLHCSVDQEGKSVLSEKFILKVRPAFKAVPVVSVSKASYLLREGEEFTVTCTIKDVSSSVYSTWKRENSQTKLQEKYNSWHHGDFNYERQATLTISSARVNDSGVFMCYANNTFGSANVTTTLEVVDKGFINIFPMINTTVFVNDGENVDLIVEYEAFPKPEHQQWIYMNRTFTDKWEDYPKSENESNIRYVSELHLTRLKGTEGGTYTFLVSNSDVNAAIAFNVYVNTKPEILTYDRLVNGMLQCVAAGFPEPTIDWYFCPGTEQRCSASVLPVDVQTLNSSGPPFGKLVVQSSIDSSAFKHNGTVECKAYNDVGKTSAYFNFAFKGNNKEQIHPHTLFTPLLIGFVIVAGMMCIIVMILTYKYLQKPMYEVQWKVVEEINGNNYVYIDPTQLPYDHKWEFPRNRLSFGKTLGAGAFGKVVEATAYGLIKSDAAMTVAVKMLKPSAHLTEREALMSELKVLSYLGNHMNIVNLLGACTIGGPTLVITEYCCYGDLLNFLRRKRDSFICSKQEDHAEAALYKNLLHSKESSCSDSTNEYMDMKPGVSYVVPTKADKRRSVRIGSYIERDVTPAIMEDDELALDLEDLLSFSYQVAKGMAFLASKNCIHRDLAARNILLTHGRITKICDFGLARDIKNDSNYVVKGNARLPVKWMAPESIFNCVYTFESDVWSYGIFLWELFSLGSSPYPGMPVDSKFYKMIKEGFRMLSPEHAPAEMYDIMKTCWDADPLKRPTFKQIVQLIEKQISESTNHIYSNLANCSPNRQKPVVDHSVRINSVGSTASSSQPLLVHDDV
row,IC50 [µM],Compound
1,≤ 0.05,"Cc1ccc(-c2noc([C@H]3C[C@@H]3F)n2)cc1NC(=O)c1cnn2cc(CCOCCO)ccc12 [Compound I-503, N-(5-(5-((1R,2S)-2-fluorocyclopropyl)-1,2,4-oxadiazol-3-yl)-2-methylphenyl)-6-(2-(2-hydroxyethoxy)ethyl)pyrazolo[1,5-a]pyridine-3-carboxamide]"
2,≤ 0.05,"Cc1nc(-c2ccc(C)c(NC(=O)c3cnc4cc(-c5cscn5)ccn34)c2)no1 [Compound I-548, N-(2-methyl-5-(5-methyl-1,2,4-oxadiazol-3-yl)phenyl)-7-(thiazol-4-yl)imidazo[1,2-a]pyridine-3-carboxamide]"
3,≤ 0.05,"Cc1ccc(-c2noc([C@H]3C[C@@H]3F)n2)cc1NC(=O)c1cnc2cc(C(C)OCCO)ccn12 (relative stereo) [Compound I-451, N-[5-[5-[(1R,2S)-2-fluorocyclopropyl]-1,2,4-oxadiazol-3-yl]-2-methyl-phenyl]-7-[(1R*)-1-(2-hydroxyethoxy)ethyl]imidazo[1,2-a]pyridine-3-carboxamide]"
4,≤ 0.05,"COc1ccn2c(C(=O)Nc3cc(-c4noc(-c5ccccn5)n4)ccc3C)cnc2c1 [Compound I-536, 7-methoxy-N-(2-methyl-5-(5-(pyridin-2-yl)-1,2,4-oxadiazol-3-yl)phenyl)imidazo[1,2-a]pyridine-3-carboxamide]"
5,0.05 to 0.5,"Cc1ccc(-c2ncon2)cc1NC(=O)c1cnn2ccccc12 [Compound I-640, N-(2-methyl-5-(1,2,4-oxadiazol-3-yl)phenyl)pyrazolo[1,5-a]pyridine-3-carboxamide]"
6,≤ 0.05,"Cc1nc(-c2ccc(C)c(NC(=O)c3cnc4ccc(-c5cscn5)cn34)c2)no1 [Compound I-542, N-(2-methyl-5-(5-methyl-1,2,4-oxadiazol-3-yl)phenyl)-6-(thiazol-4-yl)imidazo[1,2-a]pyridine-3-carboxamide]"
7,0.05 to 0.5,Cc1ccc(-c2noc([C@H]3C[C@@H]3F)n2)cc1NC(=O)c1cnc2c(F)c(COCC(C)(C)O)ccn12 [Compound I-473]
8,0.05 to 0.5,Cc1ccc(-c2noc(CC(O)C(F)F)n2)cc1NC(=O)c1cnc2cc(COCC(C)N(C)C(=O)OC(C)(C)C)ccn12 (stereo not drawn) [Compound I-600]
9,≤ 0.05,"Cc1ccc(-c2noc(C[C@H](O)C(F)F)n2)cc1NC(=O)c1cnc2ccc(-c3cscn3)cn12 [Compound I-560, (S)—N-(5-(5-(3,3-difluoro-2-hydroxypropyl)-1,2,4-oxadiazol-3-yl)-2-methylphenyl)-6-(thiazol-4-yl)imidazo[1,2-a]pyridine-3-carboxamide]"
10,≤ 0.05,"COc1ccn2c(C(=O)Nc3cc(-c4noc(Cc5ccccc5)n4)ccc3C)cnc2c1 [Compound I-552, N-(5-(5-benzyl-1,2,4-oxadiazol-3-yl)-2-methylphenyl)-7-methoxyimidazo[1,2-a]pyridine-3-carboxamide]"
11,≤ 0.05,"Cc1ccc(-c2noc(CC3COC3)n2)cc1NC(=O)c1cnc2cc(Cl)ccn12 [Compound I-753, 7-Chloro-N-[2-methyl-5-[5-(oxetan-3-ylmethyl)-1,2,4-oxadiazol-3-yl]phenyl]imidazo[1,2-a]pyridine-3-carboxamide]"
12,≤ 0.05,"Cc1ccc(-c2noc([C@H]3C[C@@H]3F)n2)cc1NC(=O)c1cnn2ccc(F)cc12 [Compound I-496, 5-fluoro-N-[5-[5-[(1R,2S)-2-fluorocyclopropyl]-1,2,4-oxadiazol-3-yl]-2-methylphenyl]pyrazolo[1,5-a]pyridine-3-carboxamide]"
13,≤ 0.05,"Cc1ccc(-c2noc([C@H]3C[C@@H]3F)n2)cc1NC(=O)c1cnc2cc(COCCS(C)(=O)=O)ccn12 [Compound I-454, N-[5-[5-[(1R,2S)-2-fluorocyclopropyl]-1,2,4-oxadiazol-3-yl]-2-methyl-phenyl]-7-(2-methylsulfonylethoxymethyl)imidazo[1,2-a]pyridine-3-carboxamide]"
14,≤ 0.05,"Cc1ccc(-c2noc(C[C@H](O)C(F)F)n2)cc1NC(=O)c1cnc2cc(COCc3ccn[nH]3)ccn12 [Compound I-586, (S)-7-(((1H-pyrazol-5-yl)methoxy)methyl)-N-(5-(5-(3,3-difluoro-2-hydroxypropyl)-1,2,4-oxadiazol-3-yl)-2-methylphenyl)imidazo[1,2-a]pyridine-3-carboxamide]"
15,≤ 0.05,Cc1ccc(-c2noc(CC(O)C(C)(C)C)n2)cc1NC(=O)c1cnc2ccccn12 (stereo not drawn) [Compound I-519]
16,≤ 0.05,"Cc1ccnc(-c2nc(-c3ccc(C)c(NC(=O)c4cnc5cc(C)ccn45)c3)no2)c1 [Compound I-549, 7-methyl-N-(2-methyl-5-(5-(4-methylpyridin-2-yl)-1,2,4-oxadiazol-3-yl)phenyl)imidazo[1,2-a]pyridine-3-carboxamide]"
17,≤ 0.05,"Cc1ccc(-c2noc([C@H]3C[C@@H]3F)n2)cc1NC(=O)c1cnc2cc(COCC3(O)COC3)ccn12 [Compound I-490, N-(5-(5-((1R,2S)-2-fluorocyclopropyl)-1,2,4-oxadiazol-3-yl)-2-methylphenyl)-7-(((3-hydroxyoxetan-3-yl)methoxy)methyl)imidazo[1,2-a]pyridine-3-carboxamide]"
18,≤ 0.05,"Cc1ccc(-c2noc([C@H]3C[C@@H]3F)n2)cc1NC(=O)c1cnc2cc(C3CC(O)C3)ccn12 (stereo partly drawn) [Compound I-478, N-[5-[5-[(1R,2S)-2-fluorocyclopropyl]-1,2,4-oxadiazol-3-yl]-2-methyl-phenyl]-7-(3-hydroxycyclobutyl)imidazo[1,2-a]pyridine-3-carboxamide]"
19,0.05 to 0.5,Cc1ccc(-c2noc(N3CC(F)(F)C3)n2)nc1NC(=O)c1cnc2ccccn12 [Compound I-711]
20,0.05 to 0.5,COCc1ccn2c(C(=O)Nc3cc(-c4noc(-c5cccnc5)n4)ccc3C)cnc2c1 [Compound I-732]

row,IC50 [µM],Compound
1,0.05 to 0.5,Cc1nc(-c2ccc(C)c(NC(=O)c3cnc4cc(C5COC5)ccn34)c2)no1 [Compound I-687]
2,0.5 to 5,"Cc1ccc(-c2ncon2)cc1NC(=O)c1cnc2cc(COCC(C)(C)O)ccn12 [Compound I-641, 7-((2-hydroxy-2-methylpropoxy)methyl)-N-(2-methyl-5-(1,2,4-oxadiazol-3-yl)phenyl)imidazo[1,2-a]pyridine-3-carboxamide]"
3,0.05 to 0.5,Cc1ccc(-c2noc(-c3cccnc3)n2)cc1NC(=O)c1cnc2ccccn12 [Compound I-738]
4,0.05 to 0.5,Cc1ccc(-c2noc(CC(C)O)n2)cc1NC(=O)c1cnc2cc(F)ccn12 (stereo not drawn) [Compound I-606]
5,0.05 to 0.5,Cc1ccc(-c2noc(CCC(C)(C)O)n2)cc1NC(=O)c1cnc2cc(COCC(C)(C)O)ccn12 [Compound I-567]
6,≤ 0.05,"Cc1ccc(-c2noc([C@H]3C[C@@H]3F)n2)cc1NC(=O)c1cnc2cc(COC[C@H](O)C(F)F)ccn12 [Compound I-501, 7-(((S)-3,3-difluoro-2-hydroxypropoxy)methyl)-N-(5-(5-((1R,2S)-2-fluorocyclopropyl)-1,2,4-oxadiazol-3-yl)-2-methylphenyl)imidazo[1,2-a]pyridine-3-carboxamide]"
7,≤ 0.05,CCc1nc(-c2ccc(C)c(NC(=O)c3cnc4cc(-c5cscn5)ccn34)c2)no1 [Compound I-720]
8,≤ 0.05,"Cc1nc(-c2ccc(C)c(NC(=O)c3cnc4cc(-c5ncsc5CO)ccn34)c2)no1 [Compound I-595, 7-(5-(hydroxymethyl)thiazol-4-yl)-N-(2-methyl-5-(5-methyl-1,2,4-oxadiazol-3-yl)phenyl)imidazo[1,2-a]pyridine-3-carboxamide]"
9,0.05 to 0.5,Cc1ccc(-c2noc([C@H]3C[C@@H]3F)n2)cc1NC(=O)c1cnc2c(F)c(COCCO)ccn12 [Compound I-472]
10,≤ 0.05,"Cc1ccn2c(C(=O)Nc3cc(-c4noc(CCC(C)(O)C(F)(F)F)n4)ccc3C)cnc2c1 (stereo not drawn) [Compound I-752, 7-methyl-N-(2-methyl-5-(5-(4,4,4-trifluoro-3-hydroxy-3-methylbutyl)-1,2,4-oxadiazol-3-yl)phenyl)imidazo[1,2-a]pyridine-3-carboxamide]"
11,≤ 0.05,"Cc1ccc(-c2noc([C@H]3C[C@@H]3F)n2)cc1NC(=O)c1cnc2cc(COCC3(O)CC3)ccn12 [Compound I-622, N-(5-(5-((1R,2S)-2-fluorocyclopropyl)-1,2,4-oxadiazol-3-yl)-2-methylphenyl)-7-(((1-hydroxycyclopropyl)methoxy)methyl)imidazo[1,2-a]pyridine-3-carboxamide]"
12,≤ 0.05,Cc1ccc(-c2noc([C@H](C)O)n2)cc1NC(=O)c1cnc2cc(-c3cscn3)ccn12 [Compound I-721]
13,0.05 to 0.5,Cc1ccn2c(C(=O)Nc3cc(-c4noc(-c5cccnn5)n4)ccc3C)cnc2c1 [Compound I-550]
14,≤ 0.05,"Cc1ccc(-c2noc([C@@H]3CC4(CC4)CN3)n2)cc1NC(=O)c1cnc2cc(-c3cscn3)ccn12 [Compound I-635, N-[5-[5-[(6S)-5-azaspiro[2.4]heptan-6-yl]-1,2,4-oxadiazol-3-yl]-2-methyl-phenyl]-7-thiazol-4-yl-imidazo[1,2-a]pyridine-3-carboxamide]"
15,≤ 0.05,COc1cc2ncc(C(=O)Nc3cc(-c4noc(N5CC(F)(F)C5)n4)ccc3C)n2cc1F [Compound I-611]
16,0.05 to 0.5,"Cc1ccc(-c2noc(CC(O)C(F)F)n2)cc1NC(=O)c1cnc2cc(COCCO)ccn12 (single isomer, unassigned) [Compound I-511]"
17,≤ 0.05,"Cc1ccc(-c2noc([C@H]3C[C@@H]3F)n2)cc1NC(=O)c1cnc2ccc(C(C)(C)O)cn12 [Compound I-457, N-(5-(5-((1R,2S)-2-fluorocyclopropyl)-1,2,4-oxadiazol-3-yl)-2-methylphenyl)-6-(2-hydroxypropan-2-yl)imidazo[1,2-a]pyridine-3-carboxamide]"
18,0.05 to 0.5,COCC(O)c1nc(-c2ccc(C)c(NC(=O)c3cnc4cc(C)ccn34)c2)no1 (stereo not drawn) [Compound I-608]
19,≤ 0.05,"Cc1ccc(-c2noc(C3CC(F)(F)C3)n2)cc1NC(=O)c1cnc2cc(COCC(C)(C)O)ccn12 [Compound I-521, N-(5-(5-(3,3-difluorocyclobutyl)-1,2,4-oxadiazol-3-yl)-2-methylphenyl)-7-((2-hydroxy-2-methylpropoxy)methyl)imidazo[1,2-a]pyridine-3-carboxamide]"
